Experimental data reported in BigSolDB 2.1.

N[C@H](Cc1c[nH]cn1)C(=O)O
solubility (mole fraction)
Settings	293.15 K	298.15 K	303.15 K	308.15 K	313.15 K	318.15 K	323.15 K	328.15 K	333.15 K
in 1,4-dioxane	0.0072	0.00864	0.0102	0.0117	0.0135	0.0152	0.0179	0.0206	0.0245
in DMF	0.154	0.176	0.201	0.228	0.258	0.29	0.326	0.365	0.417
in DMSO	0.0171	0.0199	0.0232	0.0267	0.0308	0.0353	0.0403	0.0459	0.0543
in NMP	0.0656	0.0752	0.0859	0.0977	0.111	0.127	0.14	0.157	0.178
in cyclohexane	0.000445	0.000565	0.000714	0.000897	0.00111	0.00138	0.00169	0.00216	0.00252
in ethanol	0.000253	0.000329	0.000433	0.000557	0.000724	0.000915	0.0012	0.00145	0.00181
in ethylene glycol	0.00215	0.00263	0.0032	0.00385	0.00459	0.00559	0.00654	0.00774	0.00944
in isobutanol	0.000546	0.000681	0.00085	0.00105	0.00129	0.00156	0.00201	0.0024	0.00286
in isopropanol	0.000369	0.00047	0.000598	0.000759	0.000945	0.00117	0.00146	0.00177	0.00228
in methanol	0.00019	0.000252	0.00033	0.000431	0.000562	0.000712	0.000904	0.00119	0.00156
in n-butanol	0.0007	0.000865	0.00105	0.00128	0.00155	0.00187	0.00224	0.00263	0.0033
in n-propanol	0.000484	0.00061	0.00076	0.000941	0.00115	0.00142	0.00172	0.00208	0.00263
in water	0.00458	0.00506	0.00556	0.00619	0.00686	0.00765	0.00878	0.00971	0.0118
